# Measured values as given in patent US11149004B2, “Crystalline form of EB-1020, processes for preparation and use thereof” (priority 2017, dated 2021).
# “Also recorded” adds a separate entry of the source. Read-outs that look alike come from different tables or passages of the source. Marks after values point to notes of the source that are not given here.
# How the values were obtained:
# [1] = Grinding stability of Form CS1, prior art Form A and Form B; type: physicochemical; settings: ground manually for 5 minutes in a mortar, XRPD, hydrochloride
# Method: A certain amount of Form CS1, prior art Form A and Form B were ground manually for 5 minutes in a mortar. The XRPD patterns of Form CS1 before and after grinding are as depicted in FIG. 8 (top: before grinding; bottom: after grinding). The XRPD patterns of prior art Form A before and after grinding are as depicted in FIG. 9 (top: before grinding; bottom: after grinding). The XRPD patterns of prior art Form B before and after grinding are as depicted in FIG. 10 (top: before grinding; bottom: after grinding).
# [2] = Kinetic solubility in FaSSIF and FeSSIF; type: physicochemical; settings: for Solubility (mg/mL) FaSSIF / Solubility (mg/mL) eSSIF: hydrochloride
# Description: High Performance Liquid Chromatography (HPLC) data for solubility test in the present disclosure were collected from an Agilent 1260 with Diode Array Detector (DAD). The method parameters are as follows:
# Simulated gastrointestinal fluids such as FaSSIF (Fasted state simulated intestinal fluids) and FeSSIF (Fed state simulated intestinal fluids) are biorelevant media. Solubility in such media is close to in vivo solubility, because these media can reflect the effects of intestinal environment on drug release better.
# A certain amount of Form CS1, prior art Form A and Form B were suspended in FaSSIF and FeSSIF to get saturated solutions. After equilibration for 4 h, concentrations (mg/mL) of the saturated solutions were measured by HPLC.
# [3] = according to WO2016205762A paragraph [00179]; cited from earlier work
# [4] = Storage stability of prior art Form C; type: physicochemical; settings: room temperature, a month; found by the inventors
# Description: The prior art WO2016205762A disclosed Form A, Form B and Form C of EB-1020.
# [5] = 40° C./75% RH, two weeks; per WO2016205762A paragraph [00232]; cited from earlier work
# [6] = Adhesiveness of Form CS1 (material sticking to the punch); type: physicochemical
# Method: 30 mg of Form CS1 were weighed and then added into the dies of φ8 mm round tooling, compressed at 10 KN and held for 30s. The punch was weighed and the amount of material sticking to the punch was calculated. The compression was repeated twice and the cumulative amount, maximum amount and average amount of material sticking to the punch during the compression were recorded.
# [7] = Compressibility of Form CS1 (tensile strength); type: physicochemical
# Method: A manual tablet press was used for compression. A certain amount of Form CS1 were added into the dies of round tooling and compressed at certain pressure manually, the tablet was stored in a desiccator for 24 h until complete elastic recovery. Hardness (H) was tested with an Intelligent Tablet Hardness Tester. Diameter (D) and thickness (L) were tested with a caliper. Tensile strength of the powder was calculated with the following formula: T=2H/πDL. Under a certain force, the greater the tensile strength, the better the compressibility.
# [8] = Physical stability of Form CS1 under different pressures (tableting); type: physicochemical; settings: for Crystalline form after tableting: XRPD
# Description: A certain amount of Form CS1 were compressed into pellets under different pressures with suitable tableting die. Crystalline forms before and after tableting were checked by XRPD.
# [9] = Morphology (polarizing microscope, PLM); type: physicochemical
# Description: Morphology of Form CS1 of the present disclosure was checked by a polarizing microscope (PLM), and the PLM image is shown in FIG. 11. […] Form CS1 has better flowability and is more suitable for processing and preparing drug product.
# [10] = FaSSIF, equilibration 4 h, HPLC
# [11] = 30 mg, φ8 mm round tooling, 10 KN, held 30s
# [12] = φ6 mm round tooling, 80 mg, 10 kN, after 24 h elastic recovery
smiles,measurement,setting,value
"Cl.c1ccc2cc([C@]34CNC[C@H]3C4)ccc2c1 [prior art Form A, (1R,5S)-1-(naphthalen-2-yl)-3-azabicyclo[3.1.0]hexane hydrochloride, reference compound]",Crystallinity after grinding,[1],decreased obviously
same,Crystallinity after grinding,[1]; listed as Form A,obvious decrease of crystallinity
same,Solubility (mg/mL) FaSSIF,[2]; [10],46.9 mg/mL
same,Solubility (mg/mL) eSSIF,"[2]; equilibration 4 h, HPLC",36.0 mg/mL
same,Morphology,[3],needle-like crystals
"Cl.c1ccc2cc([C@]34CNC[C@H]3C4)ccc2c1 [Form C, (1R,5S)-1-(naphthalen-2-yl)-3-azabicyclo[3.1.0]hexane hydrochloride]",Crystalline form after storage,[4],converted to Form A
same,Crystalline form after storage,[5],converted to a mixture of Form A and Form B
"Cl.c1ccc2cc([C@]34CNC[C@H]3C4)ccc2c1 [Form CS1, (1R,5S)-1-(naphthalen-2-yl)-3-azabicyclo[3.1.0]hexane hydrochloride]",Adhesiveness,[6],low adhesiveness
same,Average amount (mg) of material sticking to the punch,[6]; [11],0* mg
same,Cumulative amount (mg) of material sticking to the punch,[6]; [11],0* mg
same,Maximum amount (mg) of material sticking to the punch,[6]; [11],0.07 mg
same,Compressibility,[7],good compressibility
same,Tensile strength (MPa),"[7]; T=2H/πDL, φ6 mm round tooling, 80 mg, 10 kN",1.04 MPa
same,Diameter (mm),[7]; [12],6.95 mm
same,Thickness (mm),[7]; [12],2.40 mm
same,Crystalline form after grinding,[1],remains unchanged
same,Crystallinity after grinding,[1],remained substantially unchanged; also recorded: little change in crystallinity
same,solubility at 4 h,"[2]; FaSSIF (fasted state simulated intestinal fluid), fassif, thermodynamic from solid, FaSSIF, equilibration 4 h, HPLC, read-out: Solubility (mg/mL) FaSSIF",75.3 mg/mL
same,Solubility compared with prior art Form A and Form B,[2]; FaSSIF and FeSSIF,higher
same,Solubility relative to prior art Form A and Form B,[2]; FeSSIF,almost twice
same,Solubility (mg/mL) eSSIF,"[2]; equilibration 4 h, HPLC",74.8 mg/mL
same,Crystalline form after tableting,[8]; Pressure 3 kN,Form CS1
same,Crystalline form after tableting,[8]; Pressure 7 kN,Form CS1
same,Crystalline form after tableting,[8]; Pressure 14 kN,Form CS1
same,Crystalline form after compression into tablets under different pressures,[8]; different pressures,remains unchanged
same,Morphology,[9],spherical or short rod-like crystal
"Cl.c1ccc2cc([C@]34CNC[C@H]3C4)ccc2c1 [prior art Form B, (1R,5S)-1-(naphthalen-2-yl)-3-azabicyclo[3.1.0]hexane hydrochloride, reference compound]",Crystalline form after grinding,[1],changed
same,Crystalline form after grinding,[1]; listed as Form B,partially converts to Form A
same,Solubility (mg/mL) FaSSIF,[2]; [10],52.0 mg/mL
same,Solubility (mg/mL) eSSIF,"[2]; equilibration 4 h, HPLC",29.2 mg/mL
same,Morphology,[3],needle-like crystals
